{"source": "paper PMC8829777", "about": "(Molecular Therapy. Methods & Clinical Development, 2022)", "tested_on": "PBMCs", "experiment": "IL-2 ELISpot of in vitro expanded PBMCs", "type": "cell-based, human", "details": "peptides from other AAV serotypes; PBMCs from four healthy individuals; Figure S11"}
{"sequence": "FTVDNNGLY [AAV1 (6)_713-721 N718]", "values": [{"measurement": "IL-2 response / secretion", "value": "decreased IL-2 response"}]}
